Experimental data reported in patent publication US9115127B2 (AMGEN INC., priority 2010, dated 2015).
Where two headings read alike, the source gives them in different places.

Target: T1, wild-type human ALK (cytoplasmic domain, amino acids 1058-1620, N-terminal GST fusion) (Homo sapiens, UniProt Q9UM73)
T1 construct: The cytoplasmic domain (amino acids 1058-1620) of wild-type human ALK; GST (N); made in house; host or cells: SF9 insect cells
Experiment: ALK Inhibition in Enzyme Assay (Lance TR-FRET kinase assay)
Type: biochemical
Method in brief: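 Purified enzyme phosphorylated a biotinylated peptide substrate for 90 minutes at room temperature. Reactions were stopped with 20 mM EDTA in 50 mM Tris (pH 7.5), 100 mM NaCl, 0.05% BSA, 0.1% Tween-20. Phosphopeptide was detected by TR-FRET with SA-APC and Eu-W1024 anti-phosphotyrosine antibody PT66, excitation 320 nm.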

T1 sequence (Q9UM73 1058-1620): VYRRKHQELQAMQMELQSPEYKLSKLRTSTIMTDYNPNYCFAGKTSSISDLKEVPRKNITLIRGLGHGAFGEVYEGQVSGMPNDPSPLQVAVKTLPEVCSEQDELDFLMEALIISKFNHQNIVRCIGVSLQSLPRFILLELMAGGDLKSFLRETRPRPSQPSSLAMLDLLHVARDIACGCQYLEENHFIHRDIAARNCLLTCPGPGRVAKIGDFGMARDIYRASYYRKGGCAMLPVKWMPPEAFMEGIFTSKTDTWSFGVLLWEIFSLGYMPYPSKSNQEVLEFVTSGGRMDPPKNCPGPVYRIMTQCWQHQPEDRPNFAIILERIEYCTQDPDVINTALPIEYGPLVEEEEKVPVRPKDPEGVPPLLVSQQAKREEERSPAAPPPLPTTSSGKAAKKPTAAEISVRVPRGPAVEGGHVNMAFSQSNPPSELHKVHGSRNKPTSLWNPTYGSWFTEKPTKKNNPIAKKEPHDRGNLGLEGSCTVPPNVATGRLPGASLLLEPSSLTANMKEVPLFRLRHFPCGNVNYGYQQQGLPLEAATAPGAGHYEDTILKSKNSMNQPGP

| SMILES | IC50 [nM] | IC50 (2 nM enzyme, ATP 40 μM (Km apparent), 90 minutes at room temperature, mean of three replicates) [nM] |
| --- | --- | --- |
| CC(C)NC(=O)[C@H]1CC[C@@H](n2/c(=N/C(=O)c3ccc(Br)cc3)[nH]c3cnc(OCCN4CCCCC4)cc32)CC1 [Example 95, (E)-4-Bromo-N-(1-(cis-4-(isopropylcarbamoyl)cyclohexyl)-6-(2-(piperidin-1-yl)ethoxy)-1H-imidazo[4,5-c]pyridin-2(3H)-ylidene)benzamide] | < 50 |  |
| CC(C)NC(=O)[C@H]1CC[C@@H](n2/c(=N/C(=O)c3cccnc3)[nH]c3cnc(OCCN4CCCCC4)cc32)CC1 [Example 96, (E)-N-(1-(cis-4-(Isopropylcarbamoyl)cyclohexyl)-6-(2-(piperidin-1-yl)ethoxy)-1H-imidazo[4,5-c]pyridin-2(3H)-ylidene)nicotinamide] | < 50 |  |
| CC(C)NC(=O)[C@H]1CC[C@@H](n2/c(=N/C(=O)c3ccnnc3)[nH]c3cnc(OCCN4CCCCC4)cc32)CC1 [Example 97, (E)-N-(1-(cis-4-(Isopropylcarbamoyl)cyclohexyl)-6-(2-(piperidin-1-yl)ethoxy)-1H-imidazo[4,5-c]pyridin-2(3H)-ylidene)pyridazine-4-carboxamide] | 50 to 100 |  |
| CC(C)NC(=O)[C@H]1CC[C@@H](n2/c(=N/C(=O)c3cc(F)cc(F)c3)[nH]c3cnc(OCCN4CCCCC4)cc32)CC1 [Example 98, (E)-3,5-Difluoro-N-(1-(cis-4-(isopropylcarbamoyl)cyclohexyl)-6-(2-(piperidin-1-yl)ethoxy)-1H-imidazo[4,5-c]pyridin-2(3H)-ylidene)benzamide] | < 50 |  |
| C=CCNS(=O)(=O)c1cccc(C(=O)/N=c2\[nH]c3cnc(OCCN4CCCCC4)cc3n2[C@H]2CC[C@@H](C(=O)NC(C)C)CC2)c1 [Example 99, (E)-3-(N-Allylsulfamoyl)-N-(1-(cis-4-(isopropylcarbamoyl)cyclohexyl)-6-(2-(piperidin-1-yl)ethoxy)-1H-imidazo[4,5-c]pyridin-2(3H)-ylidene)benzamide] | 100 to 1000 |  |
| COc1ccc(C(=O)/N=c2\[nH]c3cnc(OCCN4CCCCC4)cc3n2[C@H]2CC[C@@H](C(=O)NC(C)C)CC2)cc1 [Example 100, (E)-N-(1-(cis-4-(Isopropylcarbamoyl)cyclohexyl)-6-(2-(piperidin-1-yl)ethoxy)-1H-imidazo[4,5-c]pyridin-2(3H)-ylidene)-4-methoxybenzamide] | 50 to 100 |  |
| CC(C)NC(=O)[C@H]1CC[C@@H](n2/c(=N/C(=O)c3ccc(F)c(Cl)c3)[nH]c3cnc(OCCN4CCCCC4)cc32)CC1 [Example 101, (E)-3-Chloro-4-fluoro-N-(1-(cis-4-(isopropylcarbamoyl)cyclohexyl)-6-(2-(piperidin-1-yl)ethoxy)-1H-imidazo[4,5-c]pyridin-2(3H)-ylidene)benzamide] | < 50 |  |
| CC(C)NC(=O)[C@H]1CC[C@@H](n2/c(=N/C(=O)c3ccc(C(F)(F)F)cc3)[nH]c3cnc(OCCN4CCCCC4)cc32)CC1 [Example 102, (E)-N-(1-(cis-4-(Isopropylcarbamoyl)cyclohexyl)-6-(2-(piperidin-1-yl)ethoxy)-1H-imidazo[4,5-c]pyridin-2(3H)-ylidene)-4-(trifluoromethyl)benzamide] | 100 to 1000 |  |
| CC(C)NC(=O)[C@H]1CC[C@@H](n2/c(=N/C(=O)c3ccc(C#N)c(F)c3)[nH]c3cnc(OCCN4CCCCC4)cc32)CC1 [Example 103, (E)-4-Cyano-3-fluoro-N-(1-(cis-4-(isopropylcarbamoyl)cyclohexyl)-6-(2-(piperidin-1-yl)ethoxy)-1H-imidazo[4,5-c]pyridin-2(3H)-ylidene)benzamide] | < 50 |  |
| CC(C)NC(=O)[C@H]1CC[C@@H](n2/c(=N/C(=O)c3ccc4cc[nH]c4c3)[nH]c3cnc(OCCN4CCCCC4)cc32)CC1 [Example 104, (E)-N-(1-(cis-4-(Isopropylcarbamoyl)cyclohexyl)-6-(2-(piperidin-1-yl)ethoxy)-1H-imidazo[4,5-c]pyridin-2(3H)-ylidene)-1H-indole-6-carboxamide] | 100 to 1000 |  |
| CNc1ccc(C(=O)/N=c2\[nH]c3cnc(OCCN4CCCCC4)cc3n2[C@H]2CC[C@@H](C(=O)NC(C)C)CC2)cc1 [Example 105, (E)-N-(1-(cis-4-(Isopropylcarbamoyl)cyclohexyl)-6-(2-(piperidin-1-yl)ethoxy)-1H-imidazo[4,5-c]pyridin-2(3H)-ylidene)-4-(methylamino)benzamide] | 1000 to 5000 |  |
| CC(C)NC(=O)[C@H]1CC[C@@H](n2/c(=N/C(=O)c3ccnc(F)c3)[nH]c3cnc(OCCN4CCCCC4)cc32)CC1 [Example 106, (E)-2-Fluoro-N-(1-(cis-4-(isopropylcarbamoyl)cyclohexyl)-6-(2-(piperidin-1-yl)ethoxy)-1H-imidazo[4,5-c]pyridin-2(3H)-ylidene)isonicotinamide] | < 50 |  |
| CC(C)NC(=O)[C@H]1CC[C@@H](n2/c(=N/C(=O)c3ccc(F)c(F)c3)[nH]c3cnc(OCCN4CCCCC4)cc32)CC1 [Example 107, (E)-3,4-Difluoro-N-(1-(cis-4-(isopropylcarbamoyl)cyclohexyl)-6-(2-(piperidin-1-yl)ethoxy)-1H-imidazo[4,5-c]pyridin-2(3H)-ylidene)benzamide] | < 50 |  |
| CC(C)NC(=O)[C@H]1CC[C@@H](n2/c(=N/C(=O)c3cccc(F)c3)[nH]c3cnc(OCCN4CCCCC4)cc32)CC1 [Example 108, (E)-3-Fluoro-N-(1-(cis-4-(isopropylcarbamoyl)cyclohexyl)-6-(2-(piperidin-1-yl)ethoxy)-1H-imidazo[4,5-c]pyridin-2(3H)-ylidene)benzamide] | < 50 |  |
| CC(C)NC(=O)[C@H]1CC[C@@H](n2/c(=N/C(=O)c3ccc4ccn(C)c4c3)[nH]c3cnc(OCCN4CCCCC4)cc32)CC1 [Example 109, (E)-N-(1-(cis-4-(Isopropylcarbamoyl)cyclohexyl)-6-(2-(piperidin-1-yl)ethoxy)-1H-imidazo[4,5-c]pyridin-2(3H)-ylidene)-1-methyl-1H-indole-6-carboxamide] | 1000 to 5000 |  |
| CC(C)NC(=O)[C@H]1CC[C@@H](n2/c(=N/C(=O)c3ccccn3)[nH]c3cnc(OCCN4CCCCC4)cc32)CC1 [Example 110, (E)-N-(1-(cis-4-(Isopropylcarbamoyl)cyclohexyl)-6-(2-(piperidin-1-yl)ethoxy)-1H-imidazo[4,5-c]pyridin-2(3H)-ylidene)picolinamide] | 1000 to 5000 |  |
| CC(C)NC(=O)[C@H]1CC[C@@H](n2/c(=N/C(=O)c3cc(F)cc(C#N)c3)[nH]c3cnc(OCCN4CCCCC4)cc32)CC1 [Example 111, (E)-3-Cyano-5-fluoro-N-(1-(cis-4-(isopropylcarbamoyl)cyclohexyl)-6-(2-(piperidin-1-yl)ethoxy)-1H-imidazo[4,5-c]pyridin-2(3H)-ylidene)benzamide] | < 50 |  |
| CC(C)NC(=O)[C@H]1CC[C@@H](n2/c(=N/C(=O)C3CCCCC3)[nH]c3cnc(OCCN4CCCCC4)cc32)CC1 [Example 112, cis-4-((E)-2-(Cyclohexanecarbonylimino)-6-(2-(piperidin-1-yl)ethoxy)-2,3-dihydro-1H-imidazo[4,5-c]pyridin-1-yl)-N-isopropylcyclohexanecarboxamide] | 5000 to 10000 |  |
| COc1cc(C(=O)/N=c2\[nH]c3cnc(OCCN4CCCCC4)cc3n2[C@H]2CC[C@@H](C(=O)NC(C)C)CC2)ccc1F [Example 113, (E)-4-Fluoro-N-(1-(cis-4-(isopropylcarbamoyl)cyclohexyl)-6-(2-(piperidin-1-yl)ethoxy)-1H-imidazo[4,5-c]pyridin-2(3H)-ylidene)-3-methoxybenzamide] | 100 to 1000 |  |
| CC(C)NC(=O)[C@H]1CC[C@@H](n2/c(=N/C(=O)c3ccc(F)c(C(F)(F)F)c3)[nH]c3cnc(OCCN4CCCCC4)cc32)CC1 [Example 114, (E)-4-Fluoro-N-(1-(cis-4-(isopropylcarbamoyl)cyclohexyl)-6-(2-(piperidin-1-yl)ethoxy)-1H-imidazo[4,5-c]pyridin-2(3H)-ylidene)-3-(trifluoromethyl)benzamide] | 50 to 100 |  |
| CC(C)NC(=O)[C@H]1CC[C@@H](n2/c(=N/C(=O)c3cc(F)cc(Cl)c3)[nH]c3cnc(OCCN4CCCCC4)cc32)CC1 [Example 115, (E)-3-Chloro-5-fluoro-N-(1-(cis-4-(isopropylcarbamoyl)cyclohexyl)-6-(2-(piperidin-1-yl)ethoxy)-1H-imidazo[4,5-c]pyridin-2 (3H)-ylidene)benzamide] | < 50 |  |
| COc1cccc(C(=O)/N=c2\[nH]c3cnc(OCCN4CCCCC4)cc3n2[C@H]2CC[C@@H](C(=O)NC(C)C)CC2)c1 [Example 116, (E)-N-(1-(cis-4-(Isopropylcarbamoyl)cyclohexyl)-6-(2-(piperidin-1-yl)ethoxy)-1H-imidazo[4,5-c]pyridin-2(3H)-ylidene)-3-methoxybenzamide] | 50 to 100 |  |
| COc1cc(F)cc(C(=O)/N=c2\[nH]c3cnc(OCCN4CCCCC4)cc3n2[C@H]2CC[C@@H](C(=O)NC(C)C)CC2)c1 [Example 117, (E)-3-Fluoro-N-(1-(cis-4-(isopropylcarbamoyl)cyclohexyl)-6-(2-(piperidin-1-yl)ethoxy)-1H-imidazo[4,5-c]pyridin-2(3H)-ylidene)-5-methoxybenzamide] | 50 to 100 |  |
| CC(C)NC(=O)[C@H]1CC[C@@H](n2/c(=N/C(=O)c3ccc(F)c(Cl)c3)[nH]c3cnc(OCCN4CCCCC4)cc32)CC1 [Example 118, (E)-3-Chloro-4-fluoro-N-(1-(cis-4-(isopropylcarbamoyl)cyclohexyl)-6-(2-(piperidin-1-yl)ethoxy)-1H-imidazo[4,5-c]pyridin-2(3H)-ylidene)benzamide] |  | < 50 |
| CC(C)NC(=O)[C@H]1CC[C@@H](n2/c(=N/C(=O)c3cccc(Cl)c3)[nH]c3cnc(OCCN4CCCCC4)cc32)CC1 [Example 119, (E)-3-Chloro-N-(1-(cis-4-(isopropylcarbamoyl)cyclohexyl)-6-(2-(piperidin-1-yl)ethoxy)-1H-imidazo[4,5-c]pyridin-2(3H)-ylidene)benzamide] | < 50 |  |
